# Earlier results in patent US20210322306A1, “ORAL DISSOLVABLE FILM WITH HIGH LOAD OF POLYMERIC BINDER” (CURE Pharmaceutical Holding Corp., priority 2020, published 2021).
# What was measured:
# [1] = neat binder
# [2] = neat binder; remark: listed apart in the source
smiles,measurement,setting,value
OC[C@H]1O[C@@H](O[C@H]2[C@H](O)[C@@H](O)C(O)O[C@@H]2CO)[C@H](O)[C@@H](O)[C@H]1O (some centres unmarked) [Lactose],Polymeric Binder: Glass Transition Temperature (Tg) (determined by thermomechanical analysis (TMA)),[1],95 °C
same,Polymeric Binder: Glass Transition Temperature (Tg) (determined by differential scanning calorimetry (DSC)),[2],102 °C
